Test results from the supplement of paper PMC13380429.

How the values were obtained:
A549-ACE2 [1] = test: phospholipidosis EC50; higher = less potent phospholipidosis inducer
Calu-3 [2] = test: drug sensitivity score (DSS) for viability; higher = more toxic; extreme values may be limits of the assay; details: 72 h
Vero E6 [3] = test: as above; details: 72 h
HepG2 [4] = test: as above; details: 72 h
U2OS [5] = test: as above; details: 72 h
[6] = tested on: A549-ACE2 infected with SARS-CoV-2; test: morphology score (similarity to uninfected cells); higher = more like uninfected cells; details: 24 h
Caco-2 [7] = test: cell viability relative to DMSO; higher = less toxic; details: 72 h
Calu-3 [8] = test: as above; details: 72 h
Vero E6 [9] = test: as above; details: 72 h
HepG2 [10] = test: as above; details: 72 h
U2OS [11] = test: as above; details: 72 h
[12] = tested on: A549-ACE2 infected with SARS-CoV-2; test: cell count relative to DMSO; higher = less toxic; details: 24 h
A549-ACE2 [13] = test: drug-induced phospholipidosis relative to tamoxifen; higher = more phospholipidosis
Calu-3 [14] = test: relative viability EC50 (midpoint between 100% and the lowest measured viability); higher = less toxic; details: 72 h
Vero E6 [15] = test: as above; details: 72 h
Caco-2 [16] = test: drug sensitivity score (DSS) for viability; higher = more toxic; extreme values may be limits of the assay; details: 72 h
[17] = tested on: A549-ACE2 infected with SARS-CoV-2; test: SARS-CoV-2 infection rate relative to DMSO; higher = more infection; details: 24 h
Caco-2 [18] = test: relative viability EC50 (midpoint between 100% and the lowest measured viability); higher = less toxic; details: 72 h
HepG2 [19] = test: as above; details: 72 h
U2OS [20] = test: as above; details: 72 h

CNCCC(Oc1ccc(C(F)(F)F)cc1)c1ccccc1 (configuration not stated) [fluoxetine]
Details | morphology score, 0.3 µM | morphology score, 3 µM | morphology score, 10 µM | morphology score, 30 µM | phospholipidosis EC50, 24 h [µM] | phospholipidosis EC50, 48 h [µM] | phospholipidosis EC50, 72 h [µM]
A549-ACE2 [1] | – | – | – | – | 7.05 | 7.62 | 7.61
[6] | 0.06 | 0.65 | 0.87 | 0.74 | – | – | –

Details | drug sensitivity score
Calu-3 [2] | 0.3
HepG2 [4] | 1.6
U2OS [5] | 0
Vero E6 [3] | 0.2

Nc1ncccc1-c1nc2ccc(-c3ccccc3)nc2n1-c1ccc(C2(N)CCC2)cc1 [ARQ-092]
Details | SARS-CoV-2 infection rate [%] | cell count [%] | cell viability [%] | morphology score | phospholipidosis EC50 [µM]
A549-ACE2 [1], 24 h | – | – | – | – | 3.22
A549-ACE2 [1], 48 h | – | – | – | – | 1.25
Caco-2 [7], 1 nM | – | – | 94.7 | – | –
Caco-2 [7], 10 nM | – | – | 97.9 | – | –
Caco-2 [7], 100 nM | – | – | 87.4 | – | –
Caco-2 [7], 1000 nM | – | – | 68 | – | –
Caco-2 [7], 10000 nM | – | – | 52.8 | – | –
Calu-3 [8], 1 nM | – | – | 98.3 | – | –
Calu-3 [8], 10 nM | – | – | 108 | – | –
Calu-3 [8], 100 nM | – | – | 95.7 | – | –
Calu-3 [8], 1000 nM | – | – | 76.3 | – | –
Calu-3 [8], 10000 nM | – | – | 8.8 | – | –
HepG2 [10], 1 nM | – | – | 102 | – | –
HepG2 [10], 10 nM | – | – | 95.2 | – | –
HepG2 [10], 100 nM | – | – | 90.4 | – | –
HepG2 [10], 1000 nM | – | – | 72.4 | – | –
HepG2 [10], 10000 nM | – | – | 51.4 | – | –
U2OS [11], 1 nM | – | – | 99.8 | – | –
U2OS [11], 10 nM | – | – | 99.4 | – | –
U2OS [11], 100 nM | – | – | 102 | – | –
U2OS [11], 1000 nM | – | – | 91.9 | – | –
U2OS [11], 10000 nM | – | – | 68.2 | – | –
Vero E6 [9], 1 nM | – | – | 95.1 | – | –
Vero E6 [9], 10 nM | – | – | 102 | – | –
Vero E6 [9], 100 nM | – | – | 86.5 | – | –
Vero E6 [9], 1000 nM | – | – | 82.2 | – | –
Vero E6 [9], 10000 nM | – | – | 84.7 | – | –
[6], 0.3 µM | – | – | – | -0.1 | –
[6], 3 µM | – | – | – | 0.72 | –
[6], 10 µM | – | – | – | 0.54 | –
[6], 30 µM | – | – | – | -0.21 | –
[12], 0.3 µM | – | 96 | – | – | –
[12], 3 µM | – | 98 | – | – | –
[12], 10 µM | – | 94 | – | – | –
[12], 30 µM | – | 46 | – | – | –
[17], 0.3 µM | 107 | – | – | – | –
[17], 3 µM | 51 | – | – | – | –
[17], 10 µM | 25 | – | – | – | –
[17], 30 µM | 78 | – | – | – | –

drug-induced phospholipidosis [%], A549-ACE2 [13]
Details | 0.3 µM | 0.833333 µM | 3.33333 µM | 6.66667 µM | 10 µM | 30 µM
24 h | 1.77 | 12 | 89.4 | 198 | 175 | 50.3
48 h | 3.37 | 9.82 | 86.6 | – | 138 | 36.8
72 h | 2.32 | 7.77 | – | – | – | –

Details | drug sensitivity score | relative viability EC50 [µM]
Caco-2 [16] | 7.1 | –
Calu-3 [2] | 8.7 | –
Calu-3 [14] | – | 1.52
HepG2 [4] | 6.1 | –
U2OS [5] | 2.7 | –
Vero E6 [3] | 3.3 | –
Vero E6 [15] | – | > 10

O=C(NCCN1CCC2(CC1)C(=O)NCN2c1cccc(F)c1)c1ccc(F)c(F)c1 [ML298]
Details | SARS-CoV-2 infection rate [%] | cell count [%] | cell viability [%] | morphology score | phospholipidosis EC50 [µM]
A549-ACE2 [1], 24 h | – | – | – | – | 7.34
A549-ACE2 [1], 48 h | – | – | – | – | 9.19
A549-ACE2 [1], 72 h | – | – | – | – | 8.25
Caco-2 [7], 1 nM | – | – | 98 | – | –
Caco-2 [7], 10 nM | – | – | 99.7 | – | –
Caco-2 [7], 100 nM | – | – | 95.2 | – | –
Caco-2 [7], 1000 nM | – | – | 91.1 | – | –
Caco-2 [7], 10000 nM | – | – | 89.9 | – | –
Calu-3 [8], 1 nM | – | – | 96.7 | – | –
Calu-3 [8], 10 nM | – | – | 104 | – | –
Calu-3 [8], 100 nM | – | – | 101 | – | –
Calu-3 [8], 1000 nM | – | – | 93.9 | – | –
Calu-3 [8], 10000 nM | – | – | 89.1 | – | –
HepG2 [10], 1 nM | – | – | 97.3 | – | –
HepG2 [10], 10 nM | – | – | 103 | – | –
HepG2 [10], 100 nM | – | – | 101 | – | –
HepG2 [10], 1000 nM | – | – | 97.7 | – | –
HepG2 [10], 10000 nM | – | – | 89.1 | – | –
U2OS [11], 1 nM | – | – | 103 | – | –
U2OS [11], 10 nM | – | – | 102 | – | –
U2OS [11], 100 nM | – | – | 104 | – | –
U2OS [11], 1000 nM | – | – | 98.5 | – | –
U2OS [11], 10000 nM | – | – | 94.2 | – | –
Vero E6 [9], 1 nM | – | – | 101 | – | –
Vero E6 [9], 10 nM | – | – | 105 | – | –
Vero E6 [9], 100 nM | – | – | 102 | – | –
Vero E6 [9], 1000 nM | – | – | 107 | – | –
Vero E6 [9], 10000 nM | – | – | 89.8 | – | –
[6], 0.3 µM | – | – | – | -0.08 | –
[6], 3 µM | – | – | – | 0.43 | –
[6], 10 µM | – | – | – | 0.74 | –
[6], 30 µM | – | – | – | 0.22 | –
[12], 0.3 µM | – | 102 | – | – | –
[12], 3 µM | – | 102 | – | – | –
[12], 10 µM | – | 116 | – | – | –
[12], 30 µM | – | 95 | – | – | –
[17], 0.3 µM | 100 | – | – | – | –
[17], 3 µM | 83 | – | – | – | –
[17], 10 µM | 32 | – | – | – | –
[17], 30 µM | 25 | – | – | – | –

drug-induced phospholipidosis [%], A549-ACE2 [13]
Details | 0.3 µM | 0.833333 µM | 3.33333 µM | 6.66667 µM | 10 µM | 30 µM
24 h | 1.51 | 2.03 | 17.2 | 46.9 | 89.3 | 113
48 h | 7.03 | 7.88 | 17.8 | 36.7 | 79.7 | 127
72 h | 6.97 | 7.75 | 18.7 | 39.7 | 90.5 | –

Details | drug sensitivity score | relative viability EC50 [µM]
Caco-2 [16] | 0 | –
Caco-2 [18] | – | > 10
Calu-3 [2] | 0.1 | –
Calu-3 [14] | – | > 10
HepG2 [4] | 0 | –
HepG2 [19] | – | > 10
U2OS [5] | 0 | –
U2OS [20] | – | > 10
Vero E6 [3] | 0 | –
Vero E6 [15] | – | > 10
